Measured values published in patent publication US9056844B2, “4-substituted-3-benzyloxy-bicyclo[3.1.0]hexane compounds as mGluR 2/3 antagonists” (Eli Lilly and Company, priority 2010, dated 2015).

Experiments:
male NIH-Swiss mice = test: Forced-swim test in mice (mFST); type: in vivo, mouse; details: for ED60: Mus musculus, immobility in last 4 min of 6 min; for Maximal Decrease (1 − compound/control) * 100%: immobility time
Description: Forced-Swim Test in Mice (mFST)
mFST is an established in vivo assay for antidepressant activity (Li et al. J Pharmacol Exp Ther. 319(1):254-9, 2006.). […] The mFST was used to evaluate potential antidepressant-like activity of novel mGlu2/3 antagonists essentially as described in previously published methods (see for example, Li et al. J Pharmacol Exp Ther. 319(1):254-9, 2006.). Briefly, male NIH-Swiss mice (Harlan Sprague-Dawley, Indianapolis, Ind.) weighing between 25-30 g are used. Group housed animals are removed from the vivarium to the testing area in their own cages and allowed to adapt to the new environment for at least 1 hour before testing. Compounds where R^1 and R^2 are both hydrogen are dissolved in water with minimal NaOH added for dissolution and are administered i.p. Compounds where R^1 and/or R^2 are other than hydrogen are prepared on the day of use in 2.0-2.5% N-methyl-pyrrolidinone and then suspended in 1% HEC, 0.25% Tween 80, and 0.05% Dow antifoam, and administered orally. Mice are placed in a cylinder (diameter: 10 cm; height: 25 cm) filled with 6 cm of water (22-25° C.) for 6 min. The duration of immobility during the last 4 min. of the 6 min. period of the test was scored. A mouse is recorded as immobile when floating motionless or making only those movements necessary to keep its head above water.

human mGlu6 receptor = target: T1, human mGlu6 receptor (Homo sapiens, UniProt O15303); test: mGlu6 cAMP antagonist assay (reference agonist L-AP4); type: cell-based; details: cAMP format
T1 construct: expressed in transfected cells; host or cells: AV12 cells, co-expressing rat EAAT1
Description: FLIPR and cAMP Assays for mGlu Receptor Selectivity
The relative antagonist potencies of the compounds of the invention for the other human mGlu receptors can be assessed with either a cAMP assay or fluorometric calcium response assay (see for example Fell et al., JPET (in press)). Briefly, individual AV12 cell lines containing the rat EAAT1 glutamate transporter and stably expressing the human mGlu1, 2, 3, 4, 5, 6, & 8 receptors are used for these studies. The mGlu1 and 5 receptors are […], so they naturally signal through phospholipase C, producing a calcium flux response which can be used to measure receptor activation using a Fluorometric Imaging Plate Reader (FLIPR, Molecular Devices). The cell lines expressing the mGlu2, 3, 4, and 8 receptor are designed to express the Gα15 subunit so that these Gi-coupled receptors will generate a calcium flux response similar to the mGlu1 and 5 receptor expressing cell lines. The mGlu6 receptor is tested in a cAMP format using methods analogous to those developed for mGlu2 and mGlu3 above. These cell lines are maintained as previously described except that amounts of L-glutamine and selection agents (geneticin, hygromycin B, zeocin, and blasticidin) may vary depending on the cell line. Confluent cultures are passaged biweekly.
Antagonist activity in mGlu6 cells is measured using cAMP in a method analogous to that described above for mGlu2 and mGlu3 activity, except that the reference agonist was L-AP4 (Tocris). […] Relative IC50 and EC50 values are calculated from the top-bottom range of the concentration response curve using a four-parameter logistic curve fitting program (ActivityBase v5.3.1.22).

human mGlu2 receptors = target: T2, human mGlu2 receptors (Homo sapiens, UniProt Q14416); test: mGlu2 receptor cAMP antagonist assay; type: cell-based; details: reversal of DCG IV (EC90) inhibition of forskolin-stimulated cAMP; AV12 cells
T2 construct: expressed in transfected cells; host or cells: AV12 cells, co-expressing rat EAAT1
Description: (§1) mGlu2 and mGlu3 Receptor cAMP Antagonist Assays
Antagonist activity is assayed in recombinant AV12 cells stably expressing human mGlu2 or mGlu3 receptors and the rat glutamate transporter EAAT1 (Excitatory Amino Acid Transporter 1). The cell lines are maintained by culturing in DMEM with high glucose and pyridoxine hydrochloride supplemented with 5% dialyzed fetal bovine serum (FBS), 1 mM sodium pyruvate, 1 mM HEPES and 1 mM L-glutamine; geneticin and hygromycin B are used as selection antibiotics.
Reversal of the inhibition of forskolin-stimulated cAMP production by test compounds is measured using homogeneous time resolved fluorescence technology (HTRF; Cisbio cat #62AM4PEB). The medium is removed and the cells are incubated with 100 μl cAMP stimulation buffer (STIM) for 30 minutes at 37° C. […] Cells are incubated at 37° C. for 20 minutes. To measure the cAMP levels, cAMP-d2 conjugate and anti cAMP-cryptate conjugate in lysis buffer are incubated with the treated cells at room temperature for 1 hour (mGlu2) or 1.5 hour (mGlu3). […] The raw data are converted to cAMP amount (pmole/well) using a cAMP standard curve generated for each experiment. Relative IC50 values are calculated from the top-bottom range of the concentration response curve using a four-parameter logistic curve fitting program (ActivityBase v5.3.1.22).

human mGlu3 receptors = target: T3, human mGlu3 receptors (Homo sapiens, UniProt Q14832); test: mGlu3 receptor cAMP antagonist assay; type: cell-based; details: reversal of DCG IV (EC90) inhibition of forskolin-stimulated cAMP; AV12 cells
T3 construct: expressed in transfected cells; host or cells: AV12 cells, co-expressing rat EAAT1
Description: as §1
Antagonist activity is assayed in recombinant AV12 cells stably expressing human mGlu2 or mGlu3 receptors and the rat glutamate transporter EAAT1 (Excitatory Amino Acid Transporter 1). The cell lines are maintained by culturing in DMEM with high glucose and pyridoxine hydrochloride supplemented with 5% dialyzed fetal bovine serum (FBS), 1 mM sodium pyruvate, 1 mM HEPES and 1 mM L-glutamine; geneticin and hygromycin B are used as selection antibiotics. Confluent cultures are grown at 37° C. in an atmosphere containing 6.5% CO2, and passaged biweekly. Cells are harvested using 0.25% trypsin, suspended in freeze media (FBS with 10% DMSO) at 10^7 cells/ml, and aliquots are stored in liquid nitrogen. Twenty-four hours before the assay, cells are plated at a density of 8,000-10,000 cells per well in a tissue culture treated, 96-well, half-area black plates (Costar 3875) in 50 μl of DMEM with high glucose and pyridoxine hydrochloride supplemented with 5% dialyzed FBS, 1 mM sodium pyruvate, 1 mM HEPES, 100 μg/ml ampicillin, and 250 μM (mGlu2) or 125 μM (mGlu3) of L-glutamine.
Reversal of the inhibition of forskolin-stimulated cAMP production by test compounds is measured using homogeneous time resolved fluorescence technology (HTRF; Cisbio cat #62AM4PEB). The medium is removed and the cells are incubated with 100 μl cAMP stimulation buffer (STIM) for 30 minutes at 37° C. (STIM buffer contains 500 ml HBSS, 1000 ml DPBS, 0.034% BSA, 1.67 mM HEPES and 500 μM IBMX (Sigma 15879).) Compounds are tested in 10-point concentration response curves using 3× serial dilution followed by further 40-fold dilution into STIM buffer. DCG IV (Tocris 0975) serves as the reference agonist. The final reaction mixture contains 1 μM (for mGlu2) or 3 μM (for mGlu3) of forskolin (Sigma F6886), DCG IV at its EC90, and up to 25 μM of test compound. Cells are incubated at 37° C. for 20 minutes. To measure the cAMP levels, cAMP-d2 conjugate and anti cAMP-cryptate conjugate in lysis buffer are incubated with the treated cells at room temperature for 1 hour (mGlu2) or 1.5 hour (mGlu3). The HTRF signal is detected using an EnVision plate reader (Perkin-Elmer) to calculate the ratio of fluorescence at […]. The raw data are converted to cAMP amount (pmole/well) using a cAMP standard curve generated for each experiment. Relative IC50 values are calculated from the top-bottom range of the concentration response curve using a four-parameter logistic curve fitting program (ActivityBase v5.3.1.22).

mice = test: mFST with SSRI (fluoxetine combination); type: in vivo, mouse; details: Example 10 17 mg/kg p.o., fluoxetine 10 mg/kg i.p., alone or combined
Description: mFST is an established in vivo assay for antidepressant activity (Li et al. J Pharmacol Exp Ther. 319(1):254-9, 2006.). […] J Pharmacol Exp Ther. 319(1):254-9, 2006.). Briefly, male NIH-Swiss mice (Harlan Sprague-Dawley, Indianapolis, Ind.) weighing between 25-30 g are used. Group housed animals are removed from the vivarium to the testing area in their own cages and allowed to adapt to the new environment for at least 1 hour before testing. Compounds where R^1 and R^2 are both hydrogen are dissolved in water with minimal NaOH added for dissolution and are administered i.p. […] Mice are placed in a cylinder (diameter: 10 cm; height: 25 cm) filled with 6 cm of water (22-25° C.) for 6 min. The duration of immobility during the last 4 min. of the 6 min. period of the test was scored. A mouse is recorded as immobile when floating motionless or making only those movements necessary to keep its head above water. The compounds of the invention may also be tested in combination with other compounds useful for the treatment of depressive disorders, as for example SSRI's, for their ability to enhance the antidepressant-like effects over that of either compound alone.

T1 sequence (O15303 25-877): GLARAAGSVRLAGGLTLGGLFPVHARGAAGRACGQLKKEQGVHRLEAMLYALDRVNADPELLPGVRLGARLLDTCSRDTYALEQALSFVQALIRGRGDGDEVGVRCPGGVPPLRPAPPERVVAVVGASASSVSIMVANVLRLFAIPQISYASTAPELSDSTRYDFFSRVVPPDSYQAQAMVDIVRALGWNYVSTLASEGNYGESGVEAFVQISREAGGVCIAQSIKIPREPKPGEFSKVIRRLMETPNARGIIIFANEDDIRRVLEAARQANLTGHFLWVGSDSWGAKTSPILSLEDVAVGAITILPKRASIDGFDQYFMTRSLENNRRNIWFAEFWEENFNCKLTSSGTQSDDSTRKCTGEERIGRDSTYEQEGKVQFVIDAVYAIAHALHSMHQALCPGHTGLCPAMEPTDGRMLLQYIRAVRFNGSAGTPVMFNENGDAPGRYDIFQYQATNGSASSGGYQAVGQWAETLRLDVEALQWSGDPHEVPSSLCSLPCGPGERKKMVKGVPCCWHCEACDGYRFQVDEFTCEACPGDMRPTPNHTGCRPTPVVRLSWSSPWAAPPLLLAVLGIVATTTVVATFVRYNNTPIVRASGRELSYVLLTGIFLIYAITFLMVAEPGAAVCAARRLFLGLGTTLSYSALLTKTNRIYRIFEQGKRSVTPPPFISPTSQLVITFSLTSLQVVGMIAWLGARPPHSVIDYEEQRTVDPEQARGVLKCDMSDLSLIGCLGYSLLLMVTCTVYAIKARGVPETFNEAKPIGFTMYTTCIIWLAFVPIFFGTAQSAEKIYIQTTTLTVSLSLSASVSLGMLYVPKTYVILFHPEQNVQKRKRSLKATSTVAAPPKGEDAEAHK
T3 sequence (Q14832 23-879): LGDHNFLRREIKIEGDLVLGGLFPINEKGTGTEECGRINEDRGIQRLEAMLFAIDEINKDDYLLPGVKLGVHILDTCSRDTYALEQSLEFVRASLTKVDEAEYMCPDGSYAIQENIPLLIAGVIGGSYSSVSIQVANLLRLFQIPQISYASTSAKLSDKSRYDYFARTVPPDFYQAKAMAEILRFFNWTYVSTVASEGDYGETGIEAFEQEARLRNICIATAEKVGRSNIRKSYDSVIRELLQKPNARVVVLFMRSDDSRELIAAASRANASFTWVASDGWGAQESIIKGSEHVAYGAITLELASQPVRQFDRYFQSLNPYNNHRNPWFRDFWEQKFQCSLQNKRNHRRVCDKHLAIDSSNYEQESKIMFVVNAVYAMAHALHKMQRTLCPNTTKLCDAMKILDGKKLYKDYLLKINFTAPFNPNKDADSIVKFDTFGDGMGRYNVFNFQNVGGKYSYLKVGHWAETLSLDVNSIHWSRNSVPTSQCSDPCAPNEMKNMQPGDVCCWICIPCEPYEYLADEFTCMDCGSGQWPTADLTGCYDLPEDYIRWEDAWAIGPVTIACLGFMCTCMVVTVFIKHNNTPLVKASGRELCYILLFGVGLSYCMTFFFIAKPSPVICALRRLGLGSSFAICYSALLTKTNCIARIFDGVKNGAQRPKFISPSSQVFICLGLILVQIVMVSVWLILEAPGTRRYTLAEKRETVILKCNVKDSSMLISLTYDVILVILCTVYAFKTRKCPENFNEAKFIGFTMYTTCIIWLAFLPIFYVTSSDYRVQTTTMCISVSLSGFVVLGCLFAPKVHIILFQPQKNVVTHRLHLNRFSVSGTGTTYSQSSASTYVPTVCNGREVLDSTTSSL
T2 sequence (Q14416 19-872): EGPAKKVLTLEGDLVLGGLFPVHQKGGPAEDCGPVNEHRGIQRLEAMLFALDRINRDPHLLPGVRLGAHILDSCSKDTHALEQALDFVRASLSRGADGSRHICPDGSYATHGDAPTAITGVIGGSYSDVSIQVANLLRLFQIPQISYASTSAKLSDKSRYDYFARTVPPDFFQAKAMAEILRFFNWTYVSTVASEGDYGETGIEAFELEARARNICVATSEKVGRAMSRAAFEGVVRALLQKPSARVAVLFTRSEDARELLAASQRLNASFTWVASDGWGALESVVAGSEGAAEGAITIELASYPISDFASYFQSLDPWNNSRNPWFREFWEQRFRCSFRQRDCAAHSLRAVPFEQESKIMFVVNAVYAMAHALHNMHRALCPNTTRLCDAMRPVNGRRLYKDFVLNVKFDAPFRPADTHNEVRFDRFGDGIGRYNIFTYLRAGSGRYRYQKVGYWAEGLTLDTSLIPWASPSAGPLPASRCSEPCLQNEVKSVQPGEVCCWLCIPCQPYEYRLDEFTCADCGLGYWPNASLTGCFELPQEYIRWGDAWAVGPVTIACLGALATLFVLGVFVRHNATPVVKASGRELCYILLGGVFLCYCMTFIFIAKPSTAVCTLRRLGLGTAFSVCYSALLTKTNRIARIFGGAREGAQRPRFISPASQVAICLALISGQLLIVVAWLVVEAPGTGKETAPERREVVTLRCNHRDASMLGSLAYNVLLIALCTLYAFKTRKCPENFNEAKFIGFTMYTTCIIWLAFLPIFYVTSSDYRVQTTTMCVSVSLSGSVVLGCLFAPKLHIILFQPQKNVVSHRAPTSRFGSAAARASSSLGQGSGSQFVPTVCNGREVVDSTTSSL

Structure (SMILES)	IC50 (human mGlu6 receptor) [nM]	IC50 (human mGlu2 receptors) [nM]	IC50 (human mGlu3 receptors) [nM]	ED60 (male NIH-Swiss mice; ip) [mg/kg]	Maximal Decrease (1 − compound/control) * 100% (male NIH-Swiss mice; i.p.) [%]	ED60 (male NIH-Swiss mice; po) [mg/kg]	Maximal Decrease (1 − compound/control) * 100% (male NIH-Swiss mice; p.o.) [%]	Maximal Decrease (1 − compound/control) * 100% (mice) [%]	Immobilization Time (mice; vehicle 174) [s]
CCOC(=O)OCOC(=O)[C@H]1[C@@H]2[C@H](O)[C@@H](OCc3ccc(Cl)c(Cl)c3)[C@@](N)(C(=O)OCOC(=O)OCC)[C@H]12.Cl [Example 11, Bis{[(ethoxycarbonyl)oxy]methyl} (1S,2R,3S,4S,5R,6R)-2-amino-3-[(3,4-dichlorobenzyl)oxy]-4-hydroxybicyclo[3.1.0]hexane-2,6-dicarboxylate hydrochloride]						51.5	32.9		
CC(C)C(=O)OCOC(=O)[C@H]1[C@@H]2[C@H](O)[C@@H](OCc3ccc(Cl)c(Cl)c3)[C@@](N)(C(=O)OCOC(=O)C(C)C)[C@H]12.Cl [Example 12, Bis{[(2-methylpropanoyl)oxy]methyl} (1S,2R,3S,4S,5R,6R)-2-amino-3-[(3,4-dichlorobenzyl)oxy]-4-hydroxybicyclo[3.1.0]hexane-2,6-dicarboxylate hydrochloride]						> 28	7		
Cl.N[C@]1(C(=O)OCOC(=O)C2CC2)[C@@H]2[C@@H](C(=O)OCOC(=O)C3CC3)[C@@H]2[C@H](O)[C@H]1OCc1ccc(Cl)c(Cl)c1 [Example 13, Bis{[(cyclopropylcarbonyl)oxy]methyl} (1S,2R,3S,4S,5R,6R)-2-amino-3-[(3,4-dichlorobenzyl)oxy]-4-hydroxybicyclo[3.1.0]hexane-2,6-dicarboxylate hydrochloride]						11.3	62.8		
CNCCC(Oc1ccc(C(F)(F)F)cc1)c1ccccc1 (stereo not drawn) [Fluoxetine, fluoxetine, reference compound]								7.6	161

Now from value to molecule, other results behind:

IC50 (human mGlu6 receptor) [nM]	IC50 (human mGlu2 receptors) [nM]	IC50 (human mGlu3 receptors) [nM]	Structure (SMILES)	ED60 (male NIH-Swiss mice; ip) [mg/kg]	Maximal Decrease (1 − compound/control) * 100% (male NIH-Swiss mice; i.p.) [%]	ED60 (male NIH-Swiss mice; po) [mg/kg]	Maximal Decrease (1 − compound/control) * 100% (male NIH-Swiss mice; p.o.) [%]	Maximal Decrease (1 − compound/control) * 100% (mice) [%]	Immobilization Time (mice; vehicle 174) [s]
2480 ± 295	25.4 ± 4.8	10.8	N[C@]1(C(=O)O)[C@@H]2[C@@H](C(=O)O)[C@@H]2[C@H](Sc2nccs2)[C@H]1OCc1ccc(Cl)c(Cl)c1 [Example 3, (1R,2R,3S,4S,5R,6R)-2-Amino-3-[(3,4-dichlorobenzyl)oxy]-4-(1,3-thiazol-2-ylsulfanyl)bicyclo[3.1.0]hexane-2,6-dicarboxylic acid]	8.2	47				
1580 ± 141	16.8 ± 1.6	9.5 ± 4.6	COC(=O)N[C@H]1[C@H]2[C@H](C(=O)O)[C@H]2[C@](N)(C(=O)O)[C@@H]1OCc1ccc(Cl)c(Cl)c1 [Example 5, (1S,2R,3R,4S,5R,6S)-2-Amino-3-[(3,4-dichlorobenzyl)oxy]-4-[(methoxycarbonyl)amino]bicyclo[3.1.0]hexane-2,6-dicarboxylic acid]	7.45	56				
1360 ± 433	18.6 ± 3.9	13.9 ± 2.4	Cl.Cn1ncnc1S[C@H]1[C@H]2[C@H](C(=O)O)[C@H]2[C@](N)(C(=O)O)[C@@H]1OCc1ccc(Cl)c(Cl)c1 [Example 6, (1R,2R,3S,4S,5R,6R)-2-amino-3-[(3,4-dichlorobenzyl)oxy]-4-[(1-methyl-1H-1,2,4-triazol-5-yl)sulfanyl]bicyclo[3.1.0]hexane-2,6-dicarboxylic acid hydrochloride]	7.3	47				
2580		26 ± 0.5	Cl.N[C@]1(C(=O)O)[C@@H]2[C@@H](C(=O)O)[C@@H]2[C@H](Sc2ncc[nH]2)[C@H]1OCc1ccc(Cl)c(Cl)c1 [Example 8, (1R,2R,3S,4S,5R,6R)-2-Amino-3-[(3,4-dichlorobenzyl)oxy]-4-(1H-imidazol-2-ylsulfanyl)bicyclo[3.1.0]hexane-2,6-dicarboxylic acid hydrochloride]	9.1	41				
